# In patent US20260133203A1, “DETECTION OF FUMARATE-DERIVED MODIFICATION IN A TEST SAMPLE” (UNIVERSITY OF SOUTH CAROLINA, priority 2017, published 2026):
# Where a name gives a salt, the structure may show the parent alone.
# Test system: primary rat neurons
# Test: LC-MS/MS identification of succinated proteins in primary rat neurons
# Type: cell-based
# Settings: DMF-treated primary rat neurons, modified by DMF or MMF
# Description: Primary neurons from newborn rat brain cortices were isolated and cultured using an adaptation of methods described previously. Briefly, postnatal day 1 rats were sacrificed by decapitation, the brains were aseptically dissected, and cortices were separated from the rest of the brain in ice-cold Hibernate®-A medium (Life Technologies) containing 2% (v/v) B-27 supplement (Life Technologies) and 0.5 mM glutamine (InvitrogenTM). The tissue was minced in fragments of about 1 mm3 with a scalpel and subjected to digestion with 2 mg/ml papain (Worthington) in the supplemented Hibernate®-A medium for 20 minutes at 30° C. in a shaker incubator set at 100 rpm. […] After a centrifugation at 500 g for 5 min at room temperature, cells were resuspended in NeurobasalTM-A medium containing 0.5 mM glutamine, 2% B-27 supplement, and 5 ng/ml bFGF (InvitrogenTM); counted and plated on 24-well plates pretreated with 0.01% poly-L-lysine (Sigma-AldrichTM) at a density of 200,000 cells/well. […] The protein content in the different samples was determined by the Lowry assay. […] After gel extraction, the peptides were re-suspended in 1% acetic acid and analyzed on a DionexTM […] system (Thermo ScientificTM, Rockford, IL) coupled to an Orbitrap Velos ProTM mass spectrometer (Thermo ScientificTM, Rockford, IL). […]
smiles,measurement,value
"COC(=O)/C=C/C(=O)OC [DMF, dimethyl fumarate]",number of succinated proteins confirmed,4
